Assay results taken from a melting point compilation (Tetko et al.; mined from patent text by program, amines drawn as free bases though some values may be those of a salt).

Row | melting point [°C] | Structure (SMILES)
1 | 150 to 154 | CCOC(=O)c1cc(C)nn1C
2 | 138 to 140 | CC1(C)COC(c2sccc2C2c3cc4c(cc3OCC2[N+](=O)[O-])OCO4)=N1 (stereo not given)
3 | 175 | CCN(C)c1nsc(NC(=O)NC)c1C#N
4 | 126 to 130 | CC(C)(CO)Nc1nc(SCc2cccc(Oc3ccccc3)c2)nc2nc(N)sc12
5 | 130 to 131 | COc1cc([N+](=O)[O-])ccc1NC(=O)OCc1ccccc1
6 | 138 to 140 | COC(=O)c1nc(C)[nH]c1C(=O)OC
7 | 221 to 222 | CNC1(c2ccccc2Cl)C(=O)N(S(=O)(=O)c2ccc(NC(=O)c3ccccc3Cl)cc2)c2ccc(Cl)cc21 (stereo not given)
8 | 80 to 84 | CN1CCN(C(=O)CC2(C)OCCc3c2[nH]c2ccccc32)CC1 (stereo not given)
9 | 70 to 72 | COc1ccc2oc(C(N)=O)c(OCc3ccccc3)c2c1
10 | 201 to 203 | Clc1ccc(-c2ccc(Br)cc2)nn1
11 | 89 to 90 | CC(=O)CCCc1c[nH]c2ccccc12
12 | 236 to 239 | COc1ccc(/C=C/C(=O)Nc2cc(OC)c(OC)cc2C(=O)O)cc1OC
13 | 188 to 190 | CCOC(=O)C[C@H]1O[C@H](c2cccc(OC)c2OC)c2cc(Cl)ccc2N(CC(C)(C)CO)C1=O
14 | 197 to 200 | O=CNC1Cc2ccccc2NC1=O (stereo not given)
15 | 151 to 153 | CCOCCS(=O)(=O)N1CC[C@@H](C(=O)N(C)Cc2cc(C(F)(F)F)cc(C(F)(F)F)c2)[C@H](c2ccc(F)cc2C)C1 (relative stereo)
16 | 80 to 83 | CS(=O)(=O)c1ccc(-c2cnn(-c3ccc(F)c(F)c3)c(=O)c2C2CCCCC2)cc1
17 | 118 to 122 | O=C(O)c1ncccc1CCc1cccc(F)c1
18 | 151 to 152 | CC(C)c1cccc2c1O[C@@H](C(C)C)C(=O)N2
19 | 156 to 157 | COC(=O)c1cc(CCCc2coc3nc(N)nc(N)c23)cs1

Row | melting point [°C] | Structure (SMILES)
20 | > 350 | O=C1N=Nc2ccncc21
21 | 204 | OC1CSC(Oc2cncc(-c3ccnc(Cl)c3)c2)C(O)C1O (stereo not given)
22 | 113 to 114 | COc1ccc2c(c1)C(=O)CC1C2C(O)CC2(C)C(O)CCC12 (stereo not given)
23 | 80 to 81 | CCC(O)(c1ccc(OCCCN2CCCCC2)cc1)c1cccc(Cl)c1 (stereo not given)
24 | 149 to 150 | O=C1c2cccc([N+](=O)[O-])c2C(=O)N1c1ccc(OC(F)(F)F)cc1
25 | 196 | Cc1ccc([C@@H]2Sc3ccccc3NC(=O)[C@@H]2CN2CCN(C)CC2)cc1 (relative stereo)
26 | 93 to 95 | O=C(C=P(c1ccccc1)(c1ccccc1)c1ccccc1)CCCc1ccccc1
27 | 218 to 219 | COc1c(-c2cc3c(s2)CCC(CO)C3)ccc2c(=O)c(C(=O)O)cn(C3CC3)c12 (stereo not given)
28 | 186 | COC(=O)C1(NC(=O)Cc2cc(-c3ccc(Cl)cc3)ccc2C)CCC(F)(F)CC1
29 | 141 to 143 | Cc1cn(COCOC(=O)c2ccccc2)c(=O)[nH]c1=O
30 | 146 to 148 | S=c1cc(-c2ccccc2)c(S)n[nH]1
31 | 115 to 118 | Nc1ccc2nc3n(c2c1)CC(C(=O)OCc1ccccc1)NC3 (stereo not given)
32 | 190 to 193 | COc1ccc(Cn2cnc(N)c3nc(C(C)C)nc2-3)cc1OC1CCCC1
33 | 209 to 210 | CC(=O)Nc1ccc(S(=O)(=O)Nc2cc(C)c(S(=O)(=O)C[N+](=O)[O-])c(C)c2)cc1
34 | 83 to 86 | Cc1cc2c(cc1C(F)(F)F)N(Cc1cccc(C(=O)O)c1)CCC[C@@H]2N(Cc1cc(C(F)(F)F)cc(C(F)(F)F)c1)c1nnn(C)n1
35 | 174 to 177 | CCc1cn(C2CC(O)C(CN=[N+]=[N-])O2)c(=O)[nH]c1=O (stereo not given)
36 | 226 | ON=C(c1ccc(F)cc1)c1ccc2nc(N[C@@H]3CCc4ccccc43)ccc2c1
37 | 105 | CN(CCCCNC(=O)c1cc2ccccc2s1)C1CCc2ncsc2C1 (stereo not given)
38 | 163 to 165 | O=C(O)Cc1ccc(Sc2ccc(O)cc2)cc1

Row | Structure (SMILES) | melting point [°C]
39 | Cc1ccc(S(=O)(=O)c2ccc3[nH]cc(CCN)c3c2)cc1 | 137 to 140
40 | N#Cc1cccc(Br)c1CBr | 90 to 93
